This is an account of results in patent US20250334536A1, “MODIFIED OXID[…] ITS APPLICATION” (National Yang Ming Chiao Tung University, priority 2024, published 2025).

Test [1] relates to nanoparticle composition (enzyme nanoparticles of modified glucose oxidase of the first type crosslinked with glutaraldehyde). The protocol: Deionized water solutions with varying pH values are then prepared, into which horseradish peroxidase (HRP, 0.4 μg/mL) and ABTS (2.5 mM) are added, followed by addition of the nanoparticle composition (0.1 μg/mL). 1 mL of the resulting mixture is placed in a UV-Vis spectrophotometer (model V670, JASCO), and the detection wavelength is set to 740 nm, corresponding to the characteristic absorption wavelength of ABTS^+·. Subsequently, glucose is added, and the time-dependent absorbance is measured. Using the standard calibration curve of ABTS^+· and the slope of the reaction rate, the time-dependent concentration of ABTS^+· is calculated. Enzyme kinetic parameters are then determined based on the Michaelis-Menten model, with further analysis performed using the Lineweaver-Burk model to evaluate the steady-state enzymatic behavior of the nanoparticle composition under different pH conditions.

Test [2] shares this test system. This is another data set of the same source.
Procedure: Ethanol is then gradually added (5 μl each time) until the solution becomes turbid. Glutaraldehyde is added, and the mixture is stirred at room temperature for 1.5 hours. After the reaction, the formed nanoparticles are collected by centrifugation (12,000 g, 15 minutes). The collected precipitate is resuspended in a mixture of ethanol and deionized water, followed by centrifugation under the same conditions. Subsequently, the nanoparticles are washed twice by centrifugation under the same conditions using ultrapure water. Finally, the precipitate is resuspended in deionized water and stored at 4° C. until use.
Subsequently, the catalytic efficiency of the nanoparticle composition is investigated using the 2,2′-azino-bis(3-ethylbenzothiazoline-6-sulfonic acid) (ABTS) assay. […] The generated H2O2 then reacts with HRP to oxidize the colorless ABTS into the green ABTS radical cation (ABTS^+·), enabling colorimetric analysis of enzyme activity.
Test [3] shares this test system. Particulars: 35° C.
Procedure: Subsequently, an enzyme reaction solution containing the nanoparticle composition (concentration: 0.1 μg/mL), HRP (concentration: 0.4 μg/mL), and ABTS (concentration: 2.5 mM) is prepared. A volume of 400 μL of the reaction solution is transferred to a J-815 circular dichroism spectrometer for subsequent measurements, and a circulating constant-temperature water bath is activated to regulate the temperature to the desired setting. […] The change in absorbance over time is then recorded. Using the standard calibration curve of ABTS^+· and the rate of absorbance change, the corresponding concentration change of ABTS^+· is calculated. Based on the Michaelis-Menten kinetic model, various enzyme kinetic parameters are derived to evaluate the catalytic efficiency and stability of the nanoparticle composition under different temperature conditions.
Test [4] relates to glucose oxidase nanoparticles. The settings on record: comparison value; cited from earlier work.
Setting [5] is: nanoparticle composition, substrate glucose.

Like-named read-outs stand apart in the source and are kept apart here.

In the case of `OC[C@H]1OC(O)[C@H](O)[C@@H](O)[C@@H]1O` (some centres unmarked) [glucose], the Kcat/KM in test [1] (pH 5) was 5000 M⁻¹ s⁻¹; in test [1] (pH 7) it was “approximately 4.8×10^4 s^−1·M^−1”; in test [1] (pH 9) it was 10000 M⁻¹ s⁻¹; in test [2] (setting [5]), 45200 M⁻¹ s⁻¹; in test [3], “approximately 6.0×10^4 s^−1·M^−1”. The “catalytic efficiency (Kcat/KM), times higher than that of glucose oxidase nanoparticles” value in test [2] (nanoparticle composition vs glucose oxidase nanoparticles (676 M^−1·s^−1)) is “approximately 66 times”. Moreover, the “increase of catalytic efficiency (Kcat/KM) compared to modified glucose oxidase” value in test [2] (nanoparticle composition vs modified glucose oxidase) is “more than 300%”. For the same compound, the Kcat in test [2] (setting [5]) is 421.87 s⁻¹. In addition, the Km in test [2] (setting [5]) came out at 9.33 mM. The same compound gave a VMax in test [2] (setting [5]) of 0.2646 μM^s − 1. Besides, the “catalytic efficiency (Kcat/KM)” value in test [4] is 676 M⁻¹ s⁻¹.
